Each structure is given as a SMILES string.

Sequence of Recombinant human HSD17B13 (Q7Z5P4 20-300): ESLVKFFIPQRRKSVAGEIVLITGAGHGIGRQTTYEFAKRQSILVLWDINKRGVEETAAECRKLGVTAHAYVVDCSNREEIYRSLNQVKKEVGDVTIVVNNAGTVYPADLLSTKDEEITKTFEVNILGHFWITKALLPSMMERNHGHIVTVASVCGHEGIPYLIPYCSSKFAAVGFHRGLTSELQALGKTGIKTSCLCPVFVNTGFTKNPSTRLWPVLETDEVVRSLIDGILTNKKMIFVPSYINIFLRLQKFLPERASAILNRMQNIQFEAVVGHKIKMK

This test has as its target Recombinant human HSD17B13 (Homo sapiens (Human), UniProt Q7Z5P4). The test can be described thus: HSD17B13 rapid-fire mass spectrometry assay (RF/MS assay). The test is classed as biochemical. As to conditions: inhibition of HSD17B13; LTB4 10 μM, NAD+ 0.5 mM, RT 3 h; IC50 ranges A-E. The method, boiled down: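 Product 12-oxo-LTB4 and substrate LTB4 quantified by RapidFire triple-quad MS in negative mode, giving percent conversion. Reaction: 80 nM recombinant hHSD17B13, 10 μM LTB4, 0.5 mM NAD+, compound up to 100 μM, pH 7.5, RT, 3 h. Variable-slope fit gave IC50; run in duplicate.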
The IC50 is the point on the concentration scale where inhibition reaches its midpoint. As to `COc1cc(C(=O)O)ccc1NS(=O)(=O)c1cnc(-c2ccc(C#CC3CCCC3)cc2)s1` [Example 455, 4-((2-(4-(cyclopentylethynyl)phenyl)thiazole)-5-sulfonamido)-3-methoxybenzoic acid], the IC50 was in the range of 100 to 500 nM. On to `COc1cc(C(=O)O)ccc1NS(=O)(=O)c1ccc2sc(-c3ccc(C4CCC(C)(C)CC4)cc3)nc2c1` [Example 456, 4-((2-(4-(4,4-dimethylcyclohexyl)phenyl)benzo[d]thiazole)-5-sulfonamido)-3-methoxybenzoic acid], for which the 50% inhibitory concentration (IC50) lay in the range of 1000 to 100000 nM.

For `COc1cc(C(=O)O)ccc1NS(=O)(=O)c1csc(C2CCC(C)(C)CC2)n1` [Example 457, 4-((2-(4,4-dimethylcyclohexyl)thiazole)-4-sulfonamido)-3-methoxybenzoic acid], the IC50 was 500 to 1000 nM.

Consider `COc1cc(C(=O)O)ccc1NS(=O)(=O)N1Cc2nc(-c3ccc(C4CCC(C)(C)CC4)cc3)sc2C1` [Example 458], for which the IC50 lay in the range of 100 to 500 nM. The figure for `COc1cc(C(=O)O)ccc1NS(=O)(=O)c1csc(-c2ccc3cc(C4=CCC(C)(C)CC4)ccc3c2)n1` [Example 459, 4-((2-(6-(4,4-dimethylcyclohex-1-en-1-yl)naphthalen-2-yl)thiazole)-4-sulfonamido)-3-methoxybenzoic acid] is 500 to 1000 nM; for `COc1cc(C(=O)O)ccc1NS(=O)(=O)N1Cc2nc(-c3ccc([C@H]4CC[C@H](C(F)(F)F)CC4)cc3)sc2C1` [Example 460] it is 1000 to 100000 nM. Take `COc1cc(C(=O)O)ccc1NS(=O)(=O)c1csc(-c2ccc3c(c2)OCCO3)n1` [Example 462]: the IC50 was in the range of 100 to 500 nM. As to `COc1cc(C(=O)O)ccc1NS(=O)(=O)c1cccc(C#Cc2cccc(OC(F)(F)F)c2)n1` [Example 463, 3-methoxy-4-((6-((3-(trifluoromethoxy)phenyl)ethynyl)pyridine)-2-sulfonamido)benzoic acid], the half-maximal inhibitory concentration (IC50) is 100 to 500 nM.

On to `COc1cc(C(=O)O)ccc1NS(=O)(=O)c1coc(-c2ccc(C3=CCC(C)(C)CC3)cc2)n1` [Example 464], for which the IC50 lay within 100 to 500 nM. For `COc1cc(C(=O)O)ccc1NS(=O)(=O)c1coc(-c2ccc(C(C)(C)C)cc2)n1` [Example 465], the IC50 lay within 100 to 500 nM. In the case of `COc1cc(C(=O)O)ccc1NS(=O)(=O)c1coc(-c2ccc(C(C)C)cc2)n1` [Example 466, 4-((2-(4-isopropylphenyl)oxazole)-4-sulfonamido)-3-methoxybenzoic acid], the IC50 is below 100 nM. Turning to `COc1cc(C(=O)O)ccc1NS(=O)(=O)c1coc(-c2ccc(C3CCC(C(F)(F)F)CC3)cc2)n1` (stereo not drawn) [Example 468], the IC50 was below 100 nM. Consider `CCCCC[C@H]1CC[C@H](c2ccc(-c3cccc(S(=O)(=O)Nc4ccc(C(=O)O)cc4OC)c3F)cc2)CC1` [Example 470], for which the IC50 was in the range of 100 to 500 nM. Take `COc1cc(C(=O)O)ccc1NS(=O)(=O)c1cccc(-c2ccc(C3=CCC(C(F)(F)F)CC3)cc2)c1F` (stereo not drawn) [Example 471]: the IC50 was in the range of 100 to 500 nM.

For the molecule `COc1cc(C(=O)O)ccc1NS(=O)(=O)c1cccc(-c2ccc(C3CCCCC3)cc2)c1` [Example 472], the IC50 fell in the range of 100 to 500 nM. With `COc1cc(C(=O)O)ccc1NS(=O)(=O)c1cccc(-c2ccc(C3CCC(C)(C)CC3)cc2)c1F` [Example 473], the IC50 was in the range of 100 to 500 nM. As to `COc1cc(C(=O)O)ccc1NS(=O)(=O)c1cccc(-c2ccc([C@H]3CC[C@@H](C(F)(F)F)CC3)cc2)c1F` [Example 474, 4-((2-fluoro-4′-((1s,4s)-4-(trifluoromethyl)cyclohexyl)-[1,1′-biphenyl])-3-sulfonamido)-3-methoxybenzoic acid], the IC50 lay in the range of 100 to 500 nM.

For `COc1cc(C(=O)O)ccc1NS(=O)(=O)c1cccc(-c2ccc([C@H]3CC[C@H](C(F)(F)F)CC3)cc2)c1F` [Example 475, 4-((2-fluoro-4′-((1r,4r)-4-(trifluoromethyl)cyclohexyl)-[1,1′-biphenyl])-3-sulfonamido)-3-methoxybenzoic acid], the IC50 is below 100 nM. As for `COc1cc(C(=O)O)ccc1NS(=O)(=O)c1cccc(-c2ccc(C3CCC(F)(F)CC3)cc2)c1F` [Example 476], the IC50 lay in the range of 100 to 500 nM. Regarding `COc1cc(C(=O)O)ccc1NS(=O)(=O)c1cccc(-c2ccc(C3=CCC(C(C)(C)C)CC3)cc2)c1F` (stereo not drawn) [Example 477, 4-((4″-(tert-butyl)-2-fluoro-2″,3″,4″,5″-tetrahydro-[1,1′:4′,1″-terphenyl])-3-sulfonamido)-3-methoxybenzoic acid], the IC50 lay in the range of 100 to 500 nM. For `COc1cc(C(=O)O)ccc1NS(=O)(=O)c1cccc(-c2ccc([C@H]3CC[C@H](C(C)(C)C)CC3)cc2)c1F` [Example 478, 4-((4′-((1r,4r)-4-(tert-butyl)cyclohexyl)-2-fluoro-[1,1′-biphenyl])-3-sulfonamido)-3-methoxybenzoic acid], the IC50 is 100 to 500 nM. Take `COc1cc(C(=O)O)ccc1NS(=O)(=O)c1cccc(-c2ccc([C@H]3CC[C@@H](C(C)(C)C)CC3)cc2)c1F` [Example 479, 4-((4′-((1s,4s)-4-(tert-butyl)cyclohexyl)-2-fluoro-[1,1′-biphenyl])-3-sulfonamido)-3-methoxybenzoic acid]: the IC50 fell in the range of 100 to 500 nM. Regarding `CC[C@H]1CC[C@@H](c2ccc(-c3nc(S(=O)(=O)Nc4ccc(C(=O)O)cc4OC)co3)cc2)CC1` [Example 481], the half-inhibitory concentration (IC50) lay in the range of 100 to 500 nM.

In the case of `COc1cc(C(=O)O)c(F)cc1NS(=O)(=O)c1coc(-c2ccc(C3=CCC(C)(C)CC3)cc2)n1` [Example 482], the IC50 is below 100 nM. Take `COc1cc(C(=O)O)c(F)cc1NS(=O)(=O)c1coc(-c2ccc(C3=CCC(C(F)(F)F)CC3)cc2)n1` (stereo not drawn) [Example 483]: the IC50 was below 100 nM.

As to `COc1cc(P(=O)(O)O)ccc1NS(=O)(=O)c1csc(-c2ccc(C3CCCCC3)cc2)n1` [Example 484, (4-((2-(4-cyclohexylphenyl)thiazole)-4-sulfonamido)-3-methoxyphenyl)phosphonic acid], the IC50 is 1000 to 100000 nM. For the molecule `COc1cc(C(=O)O)ccc1NS(=O)(=O)c1csc(-c2ccc(C#CC3CCCCC3)cc2)n1` [Example 485], the IC50 fell in the range of 100 to 500 nM. As to `COc1cc(C(=O)O)ccc1NS(=O)(=O)c1csc(-c2ccc(C#Cc3ccc(F)cc3)cc2)n1` [Example 486], the IC50 was 500 to 1000 nM. The figure for `CCC1CC=C(c2ccc(-c3nc(S(=O)(=O)Nc4ccc(C(=O)O)cc4OC)co3)cc2)CC1` (stereo not drawn) [Example 487] is 100 to 500 nM. As for `CC[C@H]1CC[C@H](c2ccc(-c3nc(S(=O)(=O)Nc4ccc(C(=O)O)cc4OC)co3)cc2)CC1` [Example 488], the IC50 was 100 to 500 nM. The figure for `CC[C@H]1CC[C@@H](c2ccc(-c3nc(S(=O)(=O)Nc4ccc(C(=O)O)cc4OC)co3)cc2)CC1` [Example 489] is 100 to 500 nM. The figure for `COc1cc(C(=O)O)c(F)cc1NS(=O)(=O)c1coc(-c2ccc([C@H]3CC[C@H](C(F)(F)F)CC3)cc2)n1` [Example 492] is below 100 nM; for `COc1cc(C(=O)O)c(F)cc1NS(=O)(=O)c1coc(-c2ccc([C@H]3CC[C@@H](C(F)(F)F)CC3)cc2)n1` [Example 493] it is below 100 nM; for `CCC1CC=C(c2ccc(-c3nc(S(=O)(=O)Nc4cc(F)c(C(=O)O)cc4OC)co3)cc2)CC1` (stereo not drawn) [Example 494] it is below 100 nM.

In the case of `CC[C@H]1CC[C@H](c2ccc(-c3nc(S(=O)(=O)Nc4cc(F)c(C(=O)O)cc4OC)co3)cc2)CC1` [Example 495], the IC50 was below 100 nM. The figure for `COc1cc(C(=O)O)c(F)cc1NS(=O)(=O)c1coc(-c2ccc(C3CCC(C)(C)CC3)cc2)n1` [Example 496] is below 100 nM; for `COc1cc(C(=O)O)c(F)cc1NS(=O)(=O)c1coc(-c2ccc(C3CCCCC3)cc2)n1` [Example 497] it is 100 to 500 nM. For `COc1cc(C(=O)O)c(F)cc1NS(=O)(=O)c1cccc(-c2ccc(C3=CCC(C(C)(C)C)CC3)cc2)c1F` (stereo not drawn) [Example 498], the IC50 was below 100 nM. For `COc1cc(C(=O)O)c(F)cc1NS(=O)(=O)c1cccc(-c2ccc(C3=CC[C@H](C(C)(C)C)CC3)cc2)c1F` [Example 499], the IC50 is below 100 nM. `COc1cc(C(=O)O)c(F)cc1NS(=O)(=O)c1cccc(-c2ccc([C@H]3CC[C@@H](C(C)(C)C)CC3)cc2)c1F` [Example 500]: the IC50 was below 100 nM. The figure for `CC[C@H]1CC[C@H](c2ccc(-c3cccc(S(=O)(=O)Nc4cc(F)c(C(=O)O)cc4OC)c3F)cc2)CC1` [Example 501] is below 100 nM. For `COc1cc(C(=O)O)ccc1NS(=O)(=O)c1csc(-c2ccc(C3CCC(OC)CC3)cc2)n1` (stereo not drawn) [Example 503], the IC50 is 100 to 500 nM.

`CCC[C@H]1CC[C@H](C2CCC(c3nc(S(=O)(=O)Nc4ccc(C(=O)O)cc4OC)cs3)CC2)CC1` (stereo partly drawn) [Example 504]: the IC50 fell in the range of 100 to 500 nM. In the case of `COc1c(NS(=O)(=O)c2csc(-c3ccc(C4CCC(C)(C)CC4)cc3)n2)ccc(C(=O)O)c1F` [Example 505], the IC50 was 100 to 500 nM. The figure for `COc1cc(C(=O)O)ccc1NS(=O)(=O)c1csc(-c2ccc([C@H]3CC[C@H](C(F)(F)F)CC3)cc2)n1` [Example 506] is below 100 nM. Take `COc1cc(C(=O)O)ccc1NS(=O)(=O)c1csc(-c2ccc(C34CC5CC(CC(C5)C3)C4)cc2)n1` [Example 507]: the IC50 lay in the range of 100 to 500 nM. Consider `CCCCC[C@H]1CC[C@H](c2ccc(-c3nc(S(=O)(=O)Nc4ccc(C(=O)O)cc4OC)cs3)cc2)CC1` [Example 508], for which the IC50 was below 100 nM. For `COc1cc(C(=O)O)c(F)cc1NS(=O)(=O)c1csc(-c2ccc([C@H]3CC[C@H](C(F)(F)F)CC3)cc2)n1` [Example 509], the IC50 is below 100 nM. For the molecule `COc1cc(C(=O)O)c(F)cc1NS(=O)(=O)c1csc(-c2ccc(C3=CCC(C)(C)CC3)cc2F)n1` [Example 510], the IC50 is below 100 nM.

In the case of `COc1cc(C(=O)O)c(F)cc1NS(=O)(=O)c1csc(-c2ccc(C3CCC(C)(C)CC3)cc2F)n1` [Example 511], the IC50 is below 100 nM. As to `COc1cc(C(=O)O)c(F)cc1NS(=O)(=O)c1csc(-c2ccc(C3=CCC(C)(C)CC3)c(F)c2)n1` [Example 512], the half-maximal inhibitory concentration (IC50) was below 100 nM.

(Values after patent US12384753B2, “17-beta-hydroxysteroid dehydrogenase type 13 inhibitors and methods of use thereof” (Enanta Pharmaceuticals, Inc., priority 2021, dated 2025).)
